Source: patent publication US6046239A, “Anthranilic acid analogs” (American Home Products Corporation, priority 1998, dated 2000)
Counter-ions that a name gives are not always drawn. Like-named read-outs stand apart in the source and are kept apart here.

Columns and labels:
[1] = system: Isolated Rat Bladder Strips; assay: Inhibition of contractions in isolated rat bladder strips; format: cell-based; conditions: for IC50: contractions enhanced by additional 15 mM KCl, read-out: IC50 /μM Bladder (B); for IC50 (A)/ IC50 (B): ratio aorta/bladder, indication of selectivity
Procedure: Sprague-Dawley rats (150-200 g) are rendered unconscious by CO2 asphyxiation and then euthanized by cervical dislocation. […] The bladder is opened and then cut into strips 1-2 mm in width and 7-10 mm in length. The strips are subsequently suspended in a 10 mL tissue bath under an initial resting tension of 1.5 g. The strips are held in place by two surgical clips one of which is attached to a fixed hook while the other is attached to an isometric force transducer. […] The carbachol is then washed out and the tissue allowed to relax to its resting level of activity. Following a further 30 min period of recovery an additional 15 mM KCl are introduced into the tissue bath. […] Following stabilization of this enhanced level of contractile activity, incremental increases in the concentration of test compound or vehicle are introduced into the tissue bath. Contractile activity is measured for each compound or vehicle concentration during the last minute of a 30 minute challenge.

[2] = system: Aorta; assay: Inhibition of contractions in aorta (indication of selectivity); format: cell-based; conditions: aorta
[3] = biological target: T1, calcium-dependent large conductance potassium channels (maxi K^+) (Rattus norvegicus, UniProt Q62976); assay: Potassium channel activation, whole cell patch clamp in isolated rat detrusor cells; format: cell-based; conditions: glyburide 5 μM added to the superfusate; data not shown
T1 construct: endogenous in cells; host or cells: freshly isolated rat detrusor (urinary bladder smooth muscle) cells
Procedure: Potassium channel activation by compounds of the present invention was established by examining the effect of the compound of Example 1 on calcium-dependent large conductance potassium channels (maxi K^+) as follows:
Rat detrusor cells were isolated in a manner previously described for guinea-pig detrusor (Sheldon and Argentieri, 1995). Male Sprague-Dawley rats (200-400 grams) were euthanized by CO2 inhalation and exsanguination. Their urinary bladders were rapidly removed and placed in 37° C. physiological solution with the following composition (mM): Na glutamate (80.0), NaCl (54.7), KCl (5.0), NaHCO3 (25.0), MgCl2.2H2 O (2.5), D-glucose (11.8) and CaCl2 (0.2) gassed with CO2 --O2, 95%/5% for a final pH of 7.4. The dome of the bladder was isolated from the trigon region and the mucosa was removed. This tissue was then cut into 2-3 mm wide strips and placed in fresh buffer for 1 hour. Tissues were then transferred into 10.0 ml of an isolation buffer containing the above composition plus collagenase type VIII (1.0 mg/ml) and pronase (0.25 mg/ml). After 10 minutes the isolation buffer was replaced with fresh isolation buffer for an additional 10 min. […]
Whole cell recordings were made using broken patch assess. […] After stability was achieved control currents were recorded. […] Currents were recorded for 5 to 10 minutes or until compound effects reached steady state. […]

[4] = system: hypertrophied bladder (detrussor) smooth muscle; assay: Inhibition of spontaneous contractions in vivo, hypertrophied rat bladder model; conditions: 30 mg/kg i.v.
Source text: In addition, we tested the ability of compounds to inhibit the hyperactivity of hypertrophied bladder (detrussor) smooth muscle in conscious female rats with hypertrophied bladders and thereby alleviate urinary incontinence in rats according to the following protocol described by Malmgrem (A. Malmgrem, K. E. Andersson, C. Sjogren, P. O. Andersson, Effects of Pinacidil and Cromakalim (BRL 34915) on Bladder Function in Rats with Detrusor Instability, J. Urol. 142:1134, 1989.):
Female Sprague-Dawley rats, ranging in weight from 190-210 g are used. Up to 25 animals are prepared each time. After development of bladder hypertrophy 4-8 animals are used per test.
Compounds are dissolved in PEG-200 and administered by gastric gavage or intraveneously in a volume of 5 mL/kg. For primary screening all drugs are administered at the arbitrary dose of 10 mg/kg p.o. to groups of 4 rats.
The animals are anesthetized with halothane. […]
The following urodynamic variables are recorded:
The mean value of each variable is calculated before and after compound administration. For each compound the changes in the variables measured are compared to the values obtained before treatment and expressed as percent inhibition. The data are also subjected to 2-way analysis of variance to determine significant (p<0.05) changes in the variable measured. […]

[5] = Rattus norvegicus, isolated rat bladder strips
[6] = isolated rat bladder strips, lithium salt hemihydrate

T1 sequence (Q62976 whole entry): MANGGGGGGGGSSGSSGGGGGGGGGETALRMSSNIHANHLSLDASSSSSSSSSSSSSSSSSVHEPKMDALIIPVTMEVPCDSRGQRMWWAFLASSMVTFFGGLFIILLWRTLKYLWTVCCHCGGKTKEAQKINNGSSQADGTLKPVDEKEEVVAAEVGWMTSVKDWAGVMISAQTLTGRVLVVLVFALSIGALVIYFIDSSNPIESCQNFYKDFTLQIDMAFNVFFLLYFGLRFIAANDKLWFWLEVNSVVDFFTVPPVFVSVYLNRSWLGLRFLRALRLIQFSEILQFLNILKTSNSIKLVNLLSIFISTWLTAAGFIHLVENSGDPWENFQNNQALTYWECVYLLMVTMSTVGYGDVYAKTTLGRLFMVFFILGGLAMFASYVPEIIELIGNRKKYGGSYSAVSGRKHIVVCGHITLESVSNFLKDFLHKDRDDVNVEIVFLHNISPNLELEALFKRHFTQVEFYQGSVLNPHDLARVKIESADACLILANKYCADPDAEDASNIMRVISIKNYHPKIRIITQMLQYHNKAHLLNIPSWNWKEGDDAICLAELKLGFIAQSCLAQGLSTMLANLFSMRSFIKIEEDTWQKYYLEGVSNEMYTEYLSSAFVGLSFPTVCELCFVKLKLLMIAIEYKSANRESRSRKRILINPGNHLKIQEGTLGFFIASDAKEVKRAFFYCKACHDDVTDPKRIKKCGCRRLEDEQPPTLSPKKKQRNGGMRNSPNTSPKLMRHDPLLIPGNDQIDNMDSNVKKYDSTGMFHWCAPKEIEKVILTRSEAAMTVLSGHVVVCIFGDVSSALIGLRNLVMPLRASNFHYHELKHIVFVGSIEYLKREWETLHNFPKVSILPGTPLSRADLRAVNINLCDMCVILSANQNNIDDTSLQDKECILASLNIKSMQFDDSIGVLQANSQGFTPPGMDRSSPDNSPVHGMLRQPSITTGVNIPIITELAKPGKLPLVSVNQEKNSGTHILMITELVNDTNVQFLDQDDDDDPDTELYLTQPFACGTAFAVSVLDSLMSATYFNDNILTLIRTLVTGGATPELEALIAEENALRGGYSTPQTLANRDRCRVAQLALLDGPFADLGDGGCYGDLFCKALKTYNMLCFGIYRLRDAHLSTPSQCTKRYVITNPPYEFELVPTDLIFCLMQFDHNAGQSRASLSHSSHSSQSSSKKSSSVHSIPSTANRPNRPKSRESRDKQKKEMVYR
T1 sequence (P97678 whole entry partner): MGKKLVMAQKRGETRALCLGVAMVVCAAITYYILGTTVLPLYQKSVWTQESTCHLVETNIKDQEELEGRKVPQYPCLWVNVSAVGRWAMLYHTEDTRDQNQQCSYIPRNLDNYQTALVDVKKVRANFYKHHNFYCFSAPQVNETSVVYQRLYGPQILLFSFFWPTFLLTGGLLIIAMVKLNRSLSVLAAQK

Compound	IC50 [1, 5]	IC50 (A)/ IC50 (B) [1]	IC50 [2]	other results
C=C(CC(=O)Nc1ccccc1C(=O)O)c1ccc(C(F)(F)F)cc1 [Example 6, 2-[3-(4-Trifluoromethyl-phenyl)-but-3-enoylamino]-benzoic acid]	18.1 ± 4.2 µM			
C/C(=C\C(=O)Nc1ccccc1C(=O)O)c1ccc(C(F)(F)F)cc1 [Example 7, (E)-2-[3-(4-Trifluoromethyl-phenyl)-but-2-enoylamino]-benzoic acid sodium salt]				IC50 ([1]; isolated rat bladder strips): 7.4 ± 4 µM
C/C(=C\c1ccc(C(F)(F)F)cc1)C(=O)Nc1ccc(Cl)cc1C(=O)O [Example 8]		3.58	4.23 ± 0.66 µM	IC50 ([1]; isolated rat bladder strips): 1.18 ± 0.45 µM
O=C(/C=C/c1ccc(Br)cc1)Nc1ccccc1C(=O)O [Example 3, (E)-2-[3-(4-Bromo-phenyl)-acryloylamino]-benzoic acid]	4.9 ± 2.6 µM	11	53.5 ± 7 µM	
O=C(/C=C/c1ccc(C(F)(F)F)cc1)Nc1ccccc1C(=O)O [Example 5, (E)-2-[3[(4-Trifluoromethyl-phenyl)-acryloylamino]-benzoic acid lithium salt hemihydrate]				IC50 [1, 6]: 5.3 ± 2.8 µM; IC50 (A)/ IC50 (B) ([1]; lithium salt hemihydrate): 27.5; IC50 ([2]; lithium salt hemihydrate): 146 ± 49 µM
COc1ccc(Cl)cc1C(=O)NCCc1ccc(S(=O)(=O)NC(=O)NC2CCCCC2)cc1 [glyburide, reference compound]				effect of glyburide on outward current [3]: no effect
O=C(/C=C/c1ccc(C(F)(F)F)cc1)Nc1ccccc1C(=O)O [Example 4]	3.37 ± 0.59 µM	11.7	39.5 ± 12 µM	
C/C(=C\c1ccc(C(F)(F)F)cc1)C(=O)Nc1ccc(Cl)cc1C(=O)O [Example 9, (E)-5-Chloro-2-[2-methyl-3-(4-trifluoromethyl-phenyl)-acryloylamino]-benzoic acid lithium salt hemihydrate]				IC50 [1, 6]: 0.52 ± 0.24 µM; IC50 (A)/ IC50 (B) ([1]; lithium salt hemihydrate): 5.31; % Red (F): percent reduction in the total number of spontaneous contractions [4]: -71 ± 6%; IC50 ([2]; lithium salt hemihydrate): 2.76 ± 1.63 µM
COc1ccc(/C=C/C(=O)Nc2ccccc2C(=O)O)cc1OC [Tranilast, reference compound]	14.4 ± 4.5 µM		15.6 ± 8.96 µM	smooth muscle relaxant potency and bladder selectivity ([1]; bladder tissue over vascular tissue, Table 1): not to be a potent or bladder selective smooth muscle relaxant
COc1ccc(NC(=O)/C(C)=C/c2ccc(C(F)(F)F)cc2)c(C(=O)O)c1 [Example 13, (E)-5-Methoxy-2-[2-methyl-3-(4-trifluoromethyl-phenyl)-acryloylamino]-benzoic acid]	9.6 ± 7.4 µM			
C/C(=C\c1ccc(C(F)(F)F)cc1)C(=O)Nc1cc(Cl)ccc1C(=O)O [Example 10, (E)-4-Chloro-2-[2-methyl-3-(4-trifluoromethyl-phenyl)-acryloylamino]-benzoic acid]		4.81	6.93 ± 2.4 µM	IC50 ([1]; isolated rat bladder strips): 1.44 ± 0.85 µM
CCN(CC)C(=O)COC(=O)c1ccccc1NC(=O)/C(C)=C/c1ccc(C(F)(F)F)cc1 [Example 14, (E)-2-[2-Methyl-3-(4-trifluoromethyl-phenyI)-acryloylamino]-benzoic acid diethylcarbamoylmethyl ester]	10.8 ± 0.6 µM			inhibition at 30 µM ([1]; 30 μM, isolated rat bladder strips, read-out: I = Percent inhibition at 30 μM): 35.6 ± 5%
C/C(=C\c1ccc(C(F)(F)F)cc1)C(=O)Nc1ccccc1C(=O)O [Example 1, Step 3, (E)-2-[2-Methyl-3-(4trifluoromethyl-phenyl)-acryloylamino]-benzoic acid]	3.7 ± 2.1 µM	16.5	61.2 ± 9.2 µM	
C/C(=C\c1ccc(C(F)(F)F)cc1)C(=O)Nc1ncccc1C(=O)O [Example 12, (E)-2-[2-Methyl-3-(4-trifluoromethyl-phenyl)-acryloylamino]-nicotinic acid]	11.4 ± 3.8 µM			
C/C(=C\c1ccc(C(F)(F)F)cc1)C(=O)Nc1cc(Cl)ccc1C(=O)O [Example 11, (E)-4-Chloro-2-[2-methyl-3-(4-trifluoromethyl-phenyl)-acryloylamino]-benzoic acid lithium salt hemihydrate]				IC50 [1, 6]: 3.45 ± 0.75 µM
O=C(CCc1ccc(C(F)(F)F)cc1)Nc1ccccc1C(=O)O [Example 2, 2-[3-(4-Trifluoromethyl-phenyl)-propionylamino]-benzoic acid]	14.1 ± 1.77 µM	8.4	118 ± 27.6 µM	
